Measured values published in ChEMBL document CHEMBL4402511, “Development of covalent antagonists for β1- and β2-adrenergic receptors” (Bioorg Med Chem, 2019).
pKi: −log10 of the molar value.

How the values were obtained:
[1] = Selectivity index, ratio of Ki for displacement of [3H]CGP12177 from human beta2 adrenoceptor expressed in CHO cell membranes to Ki for displacement of [3H]CGP12177 from mouse beta1 adrenoceptor expressed in HEK293T cell membranes
[2] = target: Beta-1 adrenergic receptor (Mus musculus, UniProt P34971); experiment: Displacement of [3H]CGP12177 from mouse beta1 adrenoceptor expressed in HEK293T cell membranes
[3] = target: Beta-2 adrenergic receptor (Homo sapiens, UniProt P07550); experiment: Displacement of [3H]CGP12177 from human beta2 adrenoceptor expressed in CHO cell membranes
[4] = (§1) Displacement of [3H]CGP12177 from human beta2 adrenoceptor H2.64C mutant expressed in HEK293T cell membranes
Homo sapiens [5] = organism: Homo sapiens; experiment: Covalent binding affinity to human beta2 adrenoceptor H2.64C mutant expressed in HEK293T cell membranes assessed as covalent blockage of binding site at 5 nM measured within 15 mins by [3H]CGP12177 binding based radioligand depletion assay relative to control
Homo sapiens [6] = organism: Homo sapiens; experiment: Covalent binding affinity to human beta2 adrenoceptor H2.64C mutant expressed in HEK293T cell membranes assessed as covalent blockage of binding site at 5 nM measured after 30 mins by [3H]CGP12177 binding based radioligand depletion assay relative to control
Homo sapiens [7] = organism: Homo sapiens; experiment: Covalent binding affinity to human beta2 adrenoceptor H2.64C mutant expressed in HEK293T cell membranes assessed as covalent blockage of binding site at 50 nM measured after 120 mins by [3H]CGP12177 binding based radioligand depletion assay relative to control
Homo sapiens [8] = organism: Homo sapiens; experiment: Covalent binding affinity to human beta2 adrenoceptor H2.64C mutant expressed in HEK293T cell membranes assessed as covalent blockage of binding site at 50 nM measured after 30 mins by [3H]CGP12177 binding based radioligand depletion assay relative to control
Mus musculus [9] = organism: Mus musculus; experiment: (§2) Displacement of [3H]CGP12177 from mouse beta1 adrenoceptor I2.64C mutant expressed in HEK293T cell membranes
Homo sapiens [10] = organism: Homo sapiens; experiment: as §1
Mus musculus [11] = organism: Mus musculus; experiment: Covalent binding affinity to mouse beta1 adrenoceptor I2.64C mutant expressed in HEK293T cell membranes assessed as covalent blockage of binding site at 1 uM measured after 120 mins by [3H]CGP12177 binding based radioligand depletion assay relative to control
Homo sapiens [12] = organism: Homo sapiens; experiment: Covalent binding affinity to human beta2 adrenoceptor H2.64C mutant expressed in HEK293T cell membranes assessed as covalent blockage of binding site at 1 uM measured after 120 mins by [3H]CGP12177 binding based radioligand depletion assay relative to control
Homo sapiens [13] = organism: Homo sapiens; experiment: Covalent binding affinity to human beta2 adrenoceptor H2.64C mutant expressed in HEK293T cell membranes assessed as covalent blockage of binding site at 80 nM measured after 30 mins by [3H]CGP12177 binding based radioligand depletion assay relative to control
Homo sapiens [14] = organism: Homo sapiens; experiment: Covalent binding affinity to human beta2 adrenoceptor H2.64C mutant expressed in HEK293T cell membranes assessed as covalent blockage of binding site measured after 15 mins by [3H]CGP12177 binding based radioligand depletion assay relative to control
[15] = as §2
Homo sapiens [16] = organism: Homo sapiens; experiment: Covalent binding affinity to human beta2 adrenoceptor H2.64C mutant expressed in HEK293T cell membranes assessed as covalent blockage of binding site at 50 nM measured after 90 mins by [3H]CGP12177 binding based radioligand depletion assay relative to control
Homo sapiens [17] = organism: Homo sapiens; experiment: Covalent binding affinity to human beta2 adrenoceptor H2.64C mutant expressed in HEK293T cell membranes assessed as covalent blockage of binding site at 50 nM measured after 15 mins by [3H]CGP12177 binding based radioligand depletion assay relative to control
Mus musculus [18] = organism: Mus musculus; experiment: Covalent binding affinity to mouse beta1 adrenoceptor I2.64C mutant expressed in HEK293T cell membranes assessed as covalent blockage of binding site at 50 nM measured after 120 mins by [3H]CGP12177 binding based radioligand depletion assay relative to control
Homo sapiens [19] = organism: Homo sapiens; experiment: Covalent binding affinity to human beta2 adrenoceptor H2.64C mutant expressed in HEK293T cell membranes assessed as covalent blockage of binding site at 1 nM measured after 90 mins by [3H]CGP12177 binding based radioligand depletion assay relative to control
Homo sapiens [20] = organism: Homo sapiens; experiment: Covalent binding affinity to human beta2 adrenoceptor H2.64C mutant expressed in HEK293T cell membranes assessed as covalent blockage of binding site at 1 nM measured after 15 mins by [3H]CGP12177 binding based radioligand depletion assay relative to control

Sequence of Beta-1 adrenergic receptor (P34971 whole entry): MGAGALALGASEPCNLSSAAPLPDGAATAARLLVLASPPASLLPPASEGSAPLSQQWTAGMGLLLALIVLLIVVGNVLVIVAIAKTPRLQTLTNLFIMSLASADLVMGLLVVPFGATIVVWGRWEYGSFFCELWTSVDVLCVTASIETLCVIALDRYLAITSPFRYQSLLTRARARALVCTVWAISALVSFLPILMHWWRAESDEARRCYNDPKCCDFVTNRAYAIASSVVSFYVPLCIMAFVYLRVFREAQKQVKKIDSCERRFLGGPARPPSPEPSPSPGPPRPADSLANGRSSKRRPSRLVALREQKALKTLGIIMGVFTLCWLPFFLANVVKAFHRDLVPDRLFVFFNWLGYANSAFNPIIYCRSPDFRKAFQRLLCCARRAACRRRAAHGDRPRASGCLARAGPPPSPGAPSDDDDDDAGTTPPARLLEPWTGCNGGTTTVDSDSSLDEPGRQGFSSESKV
Sequence of Beta-2 adrenergic receptor (P07550 whole entry): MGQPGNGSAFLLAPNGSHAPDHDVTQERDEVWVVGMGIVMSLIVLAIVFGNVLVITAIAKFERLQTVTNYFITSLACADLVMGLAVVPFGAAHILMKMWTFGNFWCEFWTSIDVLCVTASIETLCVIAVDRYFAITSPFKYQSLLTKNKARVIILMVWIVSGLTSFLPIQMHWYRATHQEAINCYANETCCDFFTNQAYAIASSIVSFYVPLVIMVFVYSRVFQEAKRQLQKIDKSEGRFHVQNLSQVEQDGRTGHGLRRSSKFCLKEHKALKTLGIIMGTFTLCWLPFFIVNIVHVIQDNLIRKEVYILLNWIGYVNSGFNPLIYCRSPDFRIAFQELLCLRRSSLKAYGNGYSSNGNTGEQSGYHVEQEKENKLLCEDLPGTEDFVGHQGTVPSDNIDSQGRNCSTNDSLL

Compound | pKi [2] | pKi [3] | Ratio Ki [1] | pKi [4] | further results
COCCc1ccc(OC[C@@H](O)CNCCc2ccc(OCCCSSCCN)c(OC)c2)cc1 | 7.66 | 7.70 | 0.91 | 8.82 | Activity (Homo sapiens [7]): 100%; Activity (Homo sapiens [8]): 100%
Cn1cc(C(F)(F)F)nc1-c1ccc(OC[C@@H](O)CNCCOc2ccc(OCCSSCCN)c(C(N)=O)c2)cc1 | 7.31 | 5.70 | 41 |  | KiH (Mus musculus [9]): 0.071 nM; KiL (Mus musculus [9]): 270 nM; KiH (Homo sapiens [10]): 36 nM; KiL (Homo sapiens [10]): 8.4 µM; Activity (Mus musculus [11]): 74%; Activity (Homo sapiens [12]): 79%
Cn1cc(C(F)(F)F)nc1-c1ccc(OCC(O)CNCCOc2ccc(O)c(C(N)=O)c2)cc1 (centres undefined) [CGP-20712A] | 8.85 |  |  |  | 
Cn1cc(C(F)(F)F)nc1-c1ccc(OC[C@@H](O)CNCCOc2ccc(OCCCSSCCN)c(C(N)=O)c2)cc1 | 7.15 | 5.85 | 20 |  | KiH (Mus musculus [9]): 3.1 nM; KiL (Mus musculus [9]): 480 nM; KiH (Homo sapiens [10]): 77 nM; KiL (Homo sapiens [10]): 3.6 µM; Activity (Mus musculus [11]): 53 to 67%; Activity (Homo sapiens [12]): 53 to 67%
COc1cc(CCNC[C@H](O)c2ccc(O)c(O)c2)ccc1OCCSSCCN |  |  |  |  | Activity (Homo sapiens [14]): 71%
COc1cc(CCNC[C@H](O)COc2ccc(COCCOC(C)C)cc2)ccc1OCCSSCCN | 8.59 | 7.29 | 20 | 9.59 | pKi [15]: 8.70; Activity (Homo sapiens [16]): < 100%; Activity (Homo sapiens [17]): 84 to 92%; Activity (Mus musculus [18]): 64 to 76%
COc1cc(CCNC[C@H](O)COc2ccc(-c3nc(C(F)(F)F)cn3C)cc2)ccc1OCCSSCCN | 6.82 | 5.66 | 15 |  | KiH (Mus musculus [9]): 0.56 nM; KiL (Mus musculus [9]): 280 nM; KiH (Homo sapiens [10]): 3.6 nM; KiL (Homo sapiens [10]): 2.5 µM; Activity (Homo sapiens [19]): < 100%; Activity (Homo sapiens [20]): 84 to 92%; Activity (Mus musculus [18]): 64 to 76%
COCCc1ccc(OCC(O)CNC(C)C)cc1 (racemic) [METOPROLOL] | 7.31 |  |  |  | 
CC(C)NCC(O)COc1ccc(COCCOC(C)C)cc1 (racemic) [BISOPROLOL] | 8.28 |  |  |  | 

Further lines, with some results ahead:

pKi [2] | pKi [3] | Compound | Ratio Ki [1] | pKi [4] | further results
9.31 | 9.80 | COc1cc(CCNC[C@H](O)COc2cccc3ccccc23)ccc1OCCSSCCN | 0.33 | 10.08 | Activity (Homo sapiens [5]): 77 to 92%; Activity (Homo sapiens [6]): 100%
8.96 | 10.14 | COc1cc(CCNC[C@H](O)COc2cccc3ccccc23)ccc1OCCCSSCCN | 0.066 | 9.74 | Activity (Homo sapiens [5]): 77 to 92%; Activity (Homo sapiens [6]): 100%
6.13 | 5.89 | COCCc1ccc(OC[C@H](O)CNCCc2ccc(OCCSSCCN)c(OC)c2)cc1 | 1.8 | 7.18 | 
7.57 | 7.24 | COCCc1ccc(OC[C@@H](O)CNCCc2ccc(OCCSSCCN)c(OC)c2)cc1 | 2.1 | 8.42 | Activity (Homo sapiens [13]): 100%
7.48 | 8.96 | COc1cc(CCNC[C@@H](O)COc2cccc3ccccc23)ccc1OCCCSSCCN | 0.033 | 8.92 | 
7.54 | 8.47 | COc1cc(CCNC[C@@H](O)COc2cccc3ccccc23)ccc1OCCSSCCN | 0.12 | 9.12 | 
6.66 | 6.49 | COCCc1ccc(OC[C@H](O)CNCCc2ccc(OCCCSSCCN)c(OC)c2)cc1 | 1.5 | 7.59 | 
